Test results reported in ChEMBL document CHEMBL1136842, “5-Nitrofuran-2-yl derivatives: synthesis and inhibitory activities against growing and dormant mycobacterium species” (Bioorg Med Chem Lett, 2009).
Converted amounts (≈) assume the structure as drawn.

Columns and labels:
[1] = system: Mycobacterium tuberculosis; test: Antimycobacterial activity against Mycobacterium tuberculosis H37Rv by agar dilution method; format: functional
[2] = system: Mycolicibacterium smegmatis; test: Antimycobacterial activity against Mycobacterium smegmatis ATCC 14468 by agar dilution method; format: functional
[3] = system: Mycolicibacterium fortuitum; test: Antimycobacterial activity against Mycobacterium fortuitum MTCC 951 by agar dilution method; format: functional
[4] = system: Mycolicibacterium phlei; test: Antimycobacterial activity against Mycobacterium phlei MTCC 1724 by agar dilution method; format: functional
[5] = system: Mycolicibacterium vaccae; test: Antimycobacterial activity against Mycobacterium vaccae MTCC 997 by agar dilution method; format: functional
[6] = system: Mycobacterium kansasii; test: Antimycobacterial activity against Mycobacterium kansasii MTCC 3058 by agar dilution method; format: functional
[7] = system: Vero; test: Cytotoxicity against african green monkey Vero cells after 72 hrs by MTT assay; format: cell-based; settings: Chlorocebus sabaeus
[8] = system: Mycobacterium tuberculosis; test: Antimycobacterial activity against log-phase culture of Mycobacterium tuberculosis H37Rv by agar dilution method; format: functional
[9] = system: Mycobacterium tuberculosis; test: Antimycobacterial activity against 6-week-starved culture of Mycobacterium tuberculosis H37Rv by agar dilution method; format: functional
[10] = system: Mycolicibacterium smegmatis; test: Antimycobacterial activity against log-phase culture of Mycobacterium smegmatis ATCC 14468 by agar dilution method; format: functional
[11] = system: Mycolicibacterium smegmatis; test: Antimycobacterial activity against 6-week-starved culture of Mycobacterium smegmatis ATCC 14468 by agar dilution method; format: functional
[12] = Ratio of IC50 for african green monkey Vero cells to MIC for Mycobacterium tuberculosis H37Rv; format: functional

SMILES	MIC [1]	MIC [2]	MIC [3]	MIC [4]	MIC [5]	MIC [6]	IC50 [7]	MIC [8]	MIC [9]	MIC [10]	MIC [11]	Ratio [12]
Cc1ccnc(NC(=S)N/N=C/c2ccc([N+](=O)[O-])o2)c1	2.6 µM (≈ 0.794 µg/mL)	20.5 µM (≈ 6.26 µg/mL)	5.1 µM (≈ 1.56 µg/mL)	5.1 µM (≈ 1.56 µg/mL)	2.6 µM (≈ 0.794 µg/mL)	5.1 µM (≈ 1.56 µg/mL)	< 205 µM	–	–	–	–	–
Cc1cccc(C)c1NC(=S)N/N=C/c1ccc([N+](=O)[O-])o1	4.9 µM (≈ 1.56 µg/mL)	39.2 µM (≈ 12.5 µg/mL)	39.2 µM (≈ 12.5 µg/mL)	9.8 µM (≈ 3.12 µg/mL)	39.2 µM (≈ 12.5 µg/mL)	39.2 µM (≈ 12.5 µg/mL)	> 196 µM	–	–	–	–	–
COc1ccc(NC(=S)N/N=C/c2ccc([N+](=O)[O-])o2)c(OC)c1	4.4 µM (≈ 1.54 µg/mL)	35.6 µM (≈ 12.5 µg/mL)	35.6 µM (≈ 12.5 µg/mL)	4.4 µM (≈ 1.54 µg/mL)	71.1 µM (≈ 24.9 µg/mL)	35.6 µM (≈ 12.5 µg/mL)	> 178 µM	–	–	–	–	–
O=[N+]([O-])c1ccc(/C=N/NC(=S)Nc2ccccc2Br)o1	0.54 µM (≈ 0.199 µg/mL)	33.8 µM (≈ 12.5 µg/mL)	33.8 µM (≈ 12.5 µg/mL)	16.9 µM (≈ 6.24 µg/mL)	16.9 µM (≈ 6.24 µg/mL)	8.4 µM (≈ 3.1 µg/mL)	> 169 µM	0.54 µM (≈ 0.199 µg/mL)	33.8 µM (≈ 12.5 µg/mL)	–	–	–
Cc1cccnc1NC(=S)N/N=C/c1ccc([N+](=O)[O-])o1	5.1 µM (≈ 1.56 µg/mL)	20.5 µM (≈ 6.26 µg/mL)	10.2 µM (≈ 3.11 µg/mL)	10.2 µM (≈ 3.11 µg/mL)	20.5 µM (≈ 6.26 µg/mL)	5.1 µM (≈ 1.56 µg/mL)	< 205 µM	–	–	–	–	–
COc1ccc(NC(=S)N/N=C/c2ccc([N+](=O)[O-])o2)cc1	9.7 µM (≈ 3.11 µg/mL)	39 µM (≈ 12.5 µg/mL)	39 µM (≈ 12.5 µg/mL)	4.85 µM (≈ 1.55 µg/mL)	78 µM (≈ 25 µg/mL)	39 µM (≈ 12.5 µg/mL)	> 195 µM	–	–	–	–	–
O=[N+]([O-])c1ccc(/C=N/NC(=S)Nc2ccccc2)o1	10.7 µM (≈ 3.11 µg/mL)	172 µM (≈ 50 µg/mL)	43 µM (≈ 12.5 µg/mL)	10.7 µM (≈ 3.11 µg/mL)	43 µM (≈ 12.5 µg/mL)	5.3 µM (≈ 1.54 µg/mL)	> 215 µM	–	–	–	–	–
NS(=O)(=O)c1ccc(NC(=S)N/N=C/c2ccc([N+](=O)[O-])o2)cc1	2.1 µM (≈ 0.776 µg/mL)	8.4 µM (≈ 3.1 µg/mL)	33.8 µM (≈ 12.5 µg/mL)	16.8 µM (≈ 6.21 µg/mL)	2.1 µM (≈ 0.776 µg/mL)	33.8 µM (≈ 12.5 µg/mL)	< 169 µM	–	–	8.4 µM (≈ 3.1 µg/mL)	75.6 µM (≈ 27.9 µg/mL)	–
CO[C@H]1/C=C/O[C@@]2(C)Oc3c(C)c(O)c4c(O)c(c(/C=N/N5CCN(C)CC5)c(O)c4c3C2=O)NC(=O)/C(C)=C\C=C\[C@H](C)[C@H](O)[C@@H](C)[C@@H](O)[C@@H](C)[C@H](OC(C)=O)[C@@H]1C [RIFAMPIN]	0.23 µM (≈ 0.189 µg/mL)	1.89 µM (≈ 1.56 µg/mL)	1.89 µM (≈ 1.56 µg/mL)	30.4 µM (≈ 25 µg/mL)	3.8 µM (≈ 3.13 µg/mL)	7.59 µM (≈ 6.25 µg/mL)	> 75.9 µM	0.23 µM (≈ 0.189 µg/mL)	15.2 µM (≈ 12.5 µg/mL)	1.89 µM (≈ 1.56 µg/mL)	22.6 µM (≈ 18.6 µg/mL)	–
O=[N+]([O-])c1ccc(/C=N/NC(=S)Nc2ccc(Cl)cc2)o1	1.23 µM (≈ 0.399 µg/mL)	19.1 µM (≈ 6.2 µg/mL)	38.4 µM (≈ 12.5 µg/mL)	9.6 µM (≈ 3.12 µg/mL)	9.6 µM (≈ 3.12 µg/mL)	38.4 µM (≈ 12.5 µg/mL)	> 192 µM	–	–	19.1 µM (≈ 6.2 µg/mL)	134 µM (≈ 43.4 µg/mL)	–
O=[N+]([O-])c1ccc(/C=N/NC(=S)Nc2ccc(Cl)cn2)o1	1.2 µM (≈ 0.391 µg/mL)	2.4 µM (≈ 0.782 µg/mL)	38.3 µM (≈ 12.5 µg/mL)	38.3 µM (≈ 12.5 µg/mL)	4.8 µM (≈ 1.56 µg/mL)	4.8 µM (≈ 1.56 µg/mL)	192 µM	1.2 µM (≈ 0.391 µg/mL)	38.3 µM (≈ 12.5 µg/mL)	2.4 µM (≈ 0.782 µg/mL)	43.2 µM (≈ 14.1 µg/mL)	–
O=[N+]([O-])c1ccc(/C=N/NC(=S)Nc2ncc(Br)cc2Br)o1	0.22 µM (≈ 0.0988 µg/mL)	6.9 µM (≈ 3.1 µg/mL)	3.4 µM (≈ 1.53 µg/mL)	6.9 µM (≈ 3.1 µg/mL)	3.4 µM (≈ 1.53 µg/mL)	1.7 µM (≈ 0.763 µg/mL)	139 µM	0.22 µM (≈ 0.0988 µg/mL)	13.9 µM (≈ 6.24 µg/mL)	6.9 µM (≈ 3.1 µg/mL)	124 µM (≈ 55.8 µg/mL)	632.2
Cc1ccc(NC(=S)N/N=C/c2ccc([N+](=O)[O-])o2)cc1	5.1 µM (≈ 1.55 µg/mL)	41 µM (≈ 12.5 µg/mL)	41 µM (≈ 12.5 µg/mL)	2.5 µM (≈ 0.761 µg/mL)	41 µM (≈ 12.5 µg/mL)	20.5 µM (≈ 6.24 µg/mL)	> 205 µM	–	–	–	–	–
Cc1cc(C)nc(NC(=S)N/N=C/c2ccc([N+](=O)[O-])o2)c1	2.4 µM (≈ 0.766 µg/mL)	4.8 µM (≈ 1.53 µg/mL)	39.1 µM (≈ 12.5 µg/mL)	39.1 µM (≈ 12.5 µg/mL)	39.1 µM (≈ 12.5 µg/mL)	39.1 µM (≈ 12.5 µg/mL)	< 196 µM	–	–	4.8 µM (≈ 1.53 µg/mL)	91.2 µM (≈ 29.1 µg/mL)	–
Cc1ccc(C)c(NC(=S)N/N=C/c2ccc([N+](=O)[O-])o2)c1	1.2 µM (≈ 0.382 µg/mL)	157 µM (≈ 50 µg/mL)	78.5 µM (≈ 25 µg/mL)	4.8 µM (≈ 1.53 µg/mL)	2.4 µM (≈ 0.764 µg/mL)	78.5 µM (≈ 25 µg/mL)	> 196 µM	1.1 µM (≈ 0.35 µg/mL)	154 µM (≈ 49 µg/mL)	–	–	–
NNC(=O)c1ccncc1 [ISONIAZID]	0.66 µM (≈ 0.0905 µg/mL)	45.6 µM (≈ 6.25 µg/mL)	22.8 µM (≈ 3.13 µg/mL)	91.2 µM (≈ 12.5 µg/mL)	182 µM (≈ 25 µg/mL)	182 µM (≈ 25 µg/mL)	> 456 µM	0.66 µM (≈ 0.0905 µg/mL)	729 µM (≈ 100 µg/mL)	45.6 µM (≈ 6.25 µg/mL)	> 729 µM	–
CCc1cccc(CC)c1NC(=S)N/N=C/c1ccc([N+](=O)[O-])o1	1.1 µM (≈ 0.381 µg/mL)	36 µM (≈ 12.5 µg/mL)	72.1 µM (≈ 25 µg/mL)	36 µM (≈ 12.5 µg/mL)	72.1 µM (≈ 25 µg/mL)	36 µM (≈ 12.5 µg/mL)	> 180 µM	1.2 µM (≈ 0.416 µg/mL)	36 µM (≈ 12.5 µg/mL)	–	–	–
O=C(O)c1cn(C2CC2)c2cc(N3CCNCC3)c(F)cc2c1=O [CIPROFLOXACIN]	–	2.35 µM (≈ 0.779 µg/mL)	–	–	–	9.45 µM (≈ 3.13 µg/mL)	> 188 µM	–	–	–	–	–
Cc1ccc(NC(=S)N/N=C/c2ccc([N+](=O)[O-])o2)c(C)c1	2.45 µM (≈ 0.78 µg/mL)	314 µM (≈ 100 µg/mL)	39.2 µM (≈ 12.5 µg/mL)	4.9 µM (≈ 1.56 µg/mL)	39.2 µM (≈ 12.5 µg/mL)	9.8 µM (≈ 3.12 µg/mL)	> 196 µM	–	–	–	–	–
O=[N+]([O-])c1ccc(/C=N/NC(=S)Nc2ccccn2)o1	12.1 µM (≈ 3.52 µg/mL)	48.4 µM (≈ 14.1 µg/mL)	48.4 µM (≈ 14.1 µg/mL)	6 µM (≈ 1.75 µg/mL)	24.2 µM (≈ 7.05 µg/mL)	12.1 µM (≈ 3.52 µg/mL)	214 µM	–	–	–	–	–
